Among the test systems are LOX IMVI melanoma; SK-OV-3 ovarian; SK-MEL-5 melanoma; UACC-257 melanoma; IGROV1 ovarian; MALME-3M melanoma; U251 CNS; COLO 205 colon; SK-MEL-2 melanoma; UO-31 renal.
Holding throughout (assay): NCI-60 cell line screen, 48 h

“And” between values parts separate entries of the source, which are not always exact repeats. Equal values may be shown once.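 The compound was tested at five concentrations on cells cultured in 96-well plates, with a 48-hour exposure period. Here, GI50 denotes the concentration required for 50% inhibition of growth. TGI is the concentration that stops growth completely.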

For `CN(C)CCN=c1nc2c(c(N)n1-c1ccccc1)c(=S)n(-c1ccccc1)c(=S)n2-c1ccccc1`, the GI50 in the test on LOX IMVI melanoma was 1.38 µM; in the test with SK-OV-3 ovarian, 6.96 µM; with SK-MEL-5 melanoma, 1.49 µM; in the test on UACC-257 melanoma, 1.91 µM; in the test with IGROV1 ovarian, 8.09 µM; in the test on MALME-3M melanoma, 2.04 µM. The GI50 was 1.4 µM in the test with U251 CNS, 1.52 µM in the test on COLO 205 colon, 1.73 µM with SK-MEL-2 melanoma and 1.48 µM with UO-31 renal. Moreover, the TGI with LOX IMVI melanoma turned out to be 2.71 µM; in the test on SK-OV-3 ovarian it was 20.9 µM; with SK-MEL-5 melanoma it was 2.93 µM; in the test on UACC-257 melanoma, 3.75 µM; in the test with IGROV1 ovarian it was 23 µM; in the test on MALME-3M melanoma it was 3.93 µM. For the same molecule, the TGI was determined as 3.19 µM in the test on U251 CNS, 3.32 µM with COLO 205 colon, 3.4 µM in the test on SK-MEL-2 melanoma and 3.83 µM in the test on UO-31 renal.

For the molecule `Cc1c(-c2ccc(-c3ccccc3F)cc2)nc2ccc(F)cc2c1C(=O)O`, the GI50 with LOX IMVI melanoma was 0.508 µM; in the test on SK-OV-3 ovarian, greater than 41.2 µM; in the test on SK-MEL-5 melanoma, 2.37 µM; with IGROV1 ovarian it was 0.726 µM and 0.654 µM; in the test with MALME-3M melanoma, 22.7 µM and 43.9 µM; with U251 CNS, 0.0723 µM and 0.5 µM. In addition, the GI50 in the test with COLO 205 colon was 17.4 µM and 3.81 µM; with SK-MEL-2 melanoma, 135 µM; in the test on UO-31 renal it was 1.85 µM and 2.65 µM. Besides, the TGI in the test on LOX IMVI melanoma is 31.2 µM and 71.3 µM; with SK-OV-3 ovarian, 86.5 µM and 603 µM; in the test with SK-MEL-5 melanoma, 58.6 µM and 186 µM; in the test on UACC-257 melanoma it was 155 µM and 236 µM; in the test with IGROV1 ovarian, 64.8 µM and 227 µM; in the test with MALME-3M melanoma it was 107 µM and 293 µM. The TGI is 104 µM and 259 µM in the test on U251 CNS; 97.7 µM and 234 µM in the test on COLO 205 colon; 148 µM and 909 µM with SK-MEL-2 melanoma; 78.9 µM and 105 µM with UO-31 renal.

In the case of `CC(C)(O)c1cc(Nc2cc(Oc3cn(C4CC4)nc3C3CCOCC3)ccn2)ccn1`, the GI50 with LOX IMVI melanoma is 35.1 µM; in the test with SK-OV-3 ovarian it was greater than 100 µM; with SK-MEL-5 melanoma it was 38.7 µM; in the test on UACC-257 melanoma, 85.1 µM; with IGROV1 ovarian it was 62.4 µM; with MALME-3M melanoma, greater than 100 µM. Also, the GI50 in the test on U251 CNS is greater than 100 µM; in the test on COLO 205 colon, 60.9 µM; with SK-MEL-2 melanoma, greater than 100 µM; in the test with UO-31 renal it was 54 µM. Also, the TGI in the test with LOX IMVI melanoma, in the test on SK-OV-3 ovarian, in the test with SK-MEL-5 melanoma, in the test on UACC-257 melanoma, in the test with IGROV1 ovarian and with MALME-3M melanoma was greater than 100 µM throughout. The TGI with U251 CNS, with COLO 205 colon, in the test with SK-MEL-2 melanoma and with UO-31 renal was greater than 100 µM each time.

On to `CC(=O)c1nc(-c2ccc(C[C@@H](CNC(=O)CN(C)C)NC(=O)c3ccc(OC(C)C)c(Cl)c3)cc2)cn1C`, for which the GI50 in the test on LOX IMVI melanoma is 0.16 µM; in the test with SK-OV-3 ovarian, 0.0346 µM; with SK-MEL-5 melanoma, 0.0707 µM; in the test on UACC-257 melanoma it was 9.58 µM; in the test on IGROV1 ovarian it was 0.896 µM; in the test with MALME-3M melanoma, 0.277 µM. In addition, the GI50 in the test on U251 CNS is 0.0215 µM; with COLO 205 colon, 0.0292 µM; in the test on SK-MEL-2 melanoma, 0.061 µM; with UO-31 renal, 0.723 µM. Also, the TGI in the test with LOX IMVI melanoma worked out at 16.5 µM; in the test on SK-OV-3 ovarian, 16.1 µM; with SK-MEL-5 melanoma it was 5.51 µM; in the test on UACC-257 melanoma, 24.3 µM; with IGROV1 ovarian, 21.9 µM; with MALME-3M melanoma, 18.2 µM. Also, the TGI in the test with U251 CNS was 16.7 µM; in the test with COLO 205 colon, 3.84 µM; in the test with SK-MEL-2 melanoma it was 15.5 µM; in the test on UO-31 renal, 17.6 µM.

In the case of `S=C(Nc1ccc(-c2nc3ccccc3s2)cc1)Nc1ccc(-c2nc3ccccc3s2)cc1`, the GI50 with LOX IMVI melanoma was 15.2 µM; in the test on SK-OV-3 ovarian it was 58.8 µM; in the test on SK-MEL-5 melanoma it was 13.5 µM; in the test with UACC-257 melanoma, 24.5 µM; in the test with IGROV1 ovarian, 13 µM; in the test on MALME-3M melanoma, 20 µM. Besides, the GI50 is 17.2 µM in the test with U251 CNS, 27.4 µM in the test with COLO 205 colon, 22.9 µM in the test on SK-MEL-2 melanoma and 12.4 µM with UO-31 renal. In addition, the TGI was 30.5 µM in the test on LOX IMVI melanoma; greater than 100 µM in the test on SK-OV-3 ovarian; 26.6 µM in the test on SK-MEL-5 melanoma; 48 µM with UACC-257 melanoma; 41.7 µM in the test on IGROV1 ovarian; 65.4 µM in the test with MALME-3M melanoma. In addition, the TGI in the test on U251 CNS was 41.6 µM; in the test with COLO 205 colon, greater than 100 µM; with SK-MEL-2 melanoma it was 45 µM; with UO-31 renal, 34 µM.

Regarding `CCOC(=O)C(Cc1cc(OC)c(CC(C(=O)OCC)C(=O)OCC)cc1OC)C(=O)OCC`, the TGI with LOX IMVI melanoma, in the test with SK-OV-3 ovarian, in the test with SK-MEL-5 melanoma, with UACC-257 melanoma, in the test on IGROV1 ovarian and in the test on MALME-3M melanoma was greater than 100 µM throughout. The TGI with U251 CNS, in the test on COLO 205 colon, with SK-MEL-2 melanoma and in the test on UO-31 renal was greater than 100 µM in each case.

For the molecule `O=C1N=C2N=C(c3ccc(Cl)cc3)N(c3ccc(Cl)cc3)N2Sc2ccccc21`, the TGI in the test with LOX IMVI melanoma, in the test with SK-OV-3 ovarian, in the test on SK-MEL-5 melanoma, with UACC-257 melanoma, with IGROV1 ovarian and with MALME-3M melanoma was greater than 100 µM in each case. In addition, the TGI with U251 CNS was 87.2 µM; with COLO 205 colon it was greater than 100 µM; in the test with SK-MEL-2 melanoma, greater than 100 µM; in the test with UO-31 renal it was greater than 100 µM.

For the molecule `O=C(O)C1CC2C=CCC(C2)C1` (centres undefined), the TGI with LOX IMVI melanoma, in the test with SK-OV-3 ovarian, with SK-MEL-5 melanoma, with UACC-257 melanoma, in the test with IGROV1 ovarian and in the test on MALME-3M melanoma was greater than 100 µM throughout. The TGI with U251 CNS, in the test on COLO 205 colon, with SK-MEL-2 melanoma and with UO-31 renal was greater than 100 µM in each case.

The record behind these values is PubChem BioAssay (NCI).
